# Tests used:
# [1] = tested on: K562; assay: Growth inhibition of human K562 cells incubated for 48 hrs by sulforhodamine B assay; type: functional; conditions: K562, 48 h
# [2] = tested on: RPMI-8226; assay: Growth inhibition of human RPMI8226 cells incubated for 48 hrs by sulforhodamine B assay; type: functional; conditions: RPMI-8226, 48 h
# [3] = tested on: SR; assay: Growth inhibition of human SR cells incubated for 48 hrs by sulforhodamine B assay; type: functional
# [4] = tested on: HOP-62; assay: Growth inhibition of human HOP62 cells incubated for 48 hrs by sulforhodamine B assay; type: functional; conditions: HOP-62, 48 h
# [5] = tested on: HOP-92; assay: Growth inhibition of human HOP92 cells incubated for 48 hrs by sulforhodamine B assay; type: functional; conditions: HOP-92, 48 h
# [6] = tested on: NCI-H23; assay: Growth inhibition of human NCI-H23 cells incubated for 48 hrs by sulforhodamine B assay; type: functional; conditions: NCI-H23, 48 h
# [7] = tested on: NCI-H322M; assay: Growth inhibition of human NCI-H322M cells incubated for 48 hrs by sulforhodamine B assay; type: functional
# [8] = tested on: NCI-H460; assay: Growth inhibition of human NCI-H460 cells incubated for 48 hrs by sulforhodamine B assay; type: functional; conditions: NCI-H460, 48 h
# [9] = tested on: NCI-H522; assay: Growth inhibition of human NCI-H522 cells incubated for 48 hrs by sulforhodamine B assay; type: functional; conditions: NCI-H522, 48 h
# [10] = tested on: COLO 205; assay: Growth inhibition of human COLO205 cells incubated for 48 hrs by sulforhodamine B assay; type: functional; conditions: COLO 205, 48 h
# [11] = tested on: HCC 2998; assay: Growth inhibition of human HCC2998 cells incubated for 48 hrs by sulforhodamine B assay; type: functional; conditions: HCC 2998, 48 h
# [12] = tested on: HCT-116; assay: Growth inhibition of human HCT116 cells incubated for 48 hrs by sulforhodamine B assay; type: functional; conditions: HCT-116, 48 h
# [13] = tested on: HCT-15; assay: Growth inhibition of human HCT15 cells incubated for 48 hrs by sulforhodamine B assay; type: functional; conditions: HCT-15, 48 h
# [14] = tested on: HT-29; assay: Growth inhibition of human HT-29 cells incubated for 48 hrs by sulforhodamine B assay; type: functional; conditions: HT-29, 48 h
# [15] = tested on: KM12; assay: Growth inhibition of human KM12 cells incubated for 48 hrs by sulforhodamine B assay; type: functional; conditions: KM12, 48 h
# [16] = tested on: SW-620; assay: Growth inhibition of human SW620 cells incubated for 48 hrs by sulforhodamine B assay; type: functional; conditions: SW-620, 48 h
# [17] = tested on: SNB-19; assay: Growth inhibition of human SNB19 cells incubated for 48 hrs by sulforhodamine B assay; type: functional; conditions: SNB-19, 48 h
# [18] = tested on: SNB-75; assay: Growth inhibition of human SNB75 cells incubated for 48 hrs by sulforhodamine B assay; type: functional; conditions: SNB-75, 48 h
# [19] = tested on: LOX IMVI; assay: Growth inhibition of human LOXIMVI cells incubated for 48 hrs by sulforhodamine B assay; type: functional
# [20] = tested on: Malme-3M; assay: Growth inhibition of human MALME-3M cells incubated for 48 hrs by sulforhodamine B assay; type: functional
# [21] = tested on: M14; assay: Growth inhibition of human M14 cells incubated for 48 hrs by sulforhodamine B assay; type: functional; conditions: M14, 48 h
# [22] = tested on: MDA-MB-435; assay: Growth inhibition of human MDA-MB-435 cells incubated for 48 hrs by sulforhodamine B assay; type: functional; conditions: MDA-MB-435, 48 h
# [23] = tested on: SK-MEL-28; assay: Growth inhibition of human SK-MEL-28 cells incubated for 48 hrs by sulforhodamine B assay; type: functional; conditions: SK-MEL-28, 48 h
# [24] = tested on: SK-MEL-5; assay: Growth inhibition of human SK-MEL-5 cells incubated for 48 hrs by sulforhodamine B assay; type: functional; conditions: SK-MEL-5, 48 h
# [25] = tested on: UACC-257; assay: Growth inhibition of human UACC257 cells incubated for 48 hrs by sulforhodamine B assay; type: functional; conditions: UACC-257, 48 h
# [26] = tested on: UACC-62; assay: Growth inhibition of human UACC62 cells incubated for 48 hrs by sulforhodamine B assay; type: functional; conditions: UACC-62, 48 h
# [27] = tested on: IGROV-1; assay: Growth inhibition of human IGROV1 cells incubated for 48 hrs by sulforhodamine B assay; type: functional; conditions: IGROV-1, 48 h
# [28] = tested on: OVCAR-3; assay: Growth inhibition of human OVCAR3 cells incubated for 48 hrs by sulforhodamine B assay; type: functional; conditions: OVCAR-3, 48 h
# [29] = tested on: OVCAR-5; assay: Growth inhibition of human OVCAR5 cells incubated for 48 hrs by sulforhodamine B assay; type: functional; conditions: OVCAR-5, 48 h
# [30] = tested on: NCI/ADR-RES; assay: Growth inhibition of human NCI/ADR-RES cells incubated for 48 hrs by sulforhodamine B assay; type: functional
# [31] = tested on: SK-OV-3; assay: Growth inhibition of human SKOV3 cells incubated for 48 hrs by sulforhodamine B assay; type: functional; conditions: SK-OV-3, 48 h
# [32] = tested on: A498; assay: Growth inhibition of human A498 cells incubated for 48 hrs by sulforhodamine B assay; type: functional; conditions: A498, 48 h
# [33] = tested on: ACHN; assay: Growth inhibition of human ACHN cells incubated for 48 hrs by sulforhodamine B assay; type: functional
# [34] = tested on: CAKI-1; assay: Growth inhibition of human Caki1 cells incubated for 48 hrs by sulforhodamine B assay; type: functional; conditions: CAKI-1, 48 h
# [35] = tested on: RXF 393; assay: Growth inhibition of human RXF393 cells incubated for 48 hrs by sulforhodamine B assay; type: functional; conditions: RXF 393, 48 h
# [36] = tested on: TK-10; assay: Growth inhibition of human TK10 cells incubated for 48 hrs by sulforhodamine B assay; type: functional; conditions: TK-10, 48 h
# [37] = tested on: PC-3; assay: Growth inhibition of human PC3 cells incubated for 48 hrs by sulforhodamine B assay; type: functional; conditions: PC-3, 48 h
# [38] = tested on: DU-145; assay: Growth inhibition of human DU145 cells incubated for 48 hrs by sulforhodamine B assay; type: functional; conditions: DU-145, 48 h
# [39] = tested on: MCF7; assay: Growth inhibition of human MCF7 cells incubated for 48 hrs by sulforhodamine B assay; type: functional; conditions: MCF7, 48 h
# [40] = tested on: Hs-578T; assay: Growth inhibition of human Hs 578T cells incubated for 48 hrs by sulforhodamine B assay; type: functional
# [41] = tested on: BT-549; assay: Growth inhibition of human BT549 cells incubated for 48 hrs by sulforhodamine B assay; type: functional; conditions: BT-549, 48 h
# [42] = tested on: MDA-MB-468; assay: Growth inhibition of human MDA-MB-468 cells incubated for 48 hrs by sulforhodamine B assay; type: functional; conditions: MDA-MB-468, 48 h
# [43] = tested on: WI-38; assay: Cytotoxicity against human WI38 cells assessed as reduction in cell viability after 24 hrs by MTT assay; type: cell-based; conditions: WI-38, 24 h
# [44] = tested on: WISH; assay: Cytotoxicity against human WISH cells assessed as reduction in cell viability after 24 hrs by MTT assay; type: cell-based
# [45] = tested on: Escherichia coli; assay: Induction of Escherichia coli genomic DNA cleavage after 1 hr by agarose gel electrophoresis method
# [46] = species on record: Homo sapiens; assay: Inhibition of PTK in human MCF7 cells at 1 uM preincubated for 2 hrs followed by poly-Glu-Tyr substrate addition by ELISA relative to control; type: cell-based
# [47] = Growth inhibition of human NCI60 cells at 10 uM after 48 hrs by SRB assay relative to control; values are per cent of control; conditions: NCI60, 48 h
compound,measurement,setting,value
N=C(N)c1ccc(-c2ccc(-c3ccccc3)s2)cc1F,GI50,[1],3970 nM
same,GI50,[2],2780 nM
same,GI50,[3],3110 nM
same,GI50,[4],10500 nM
same,GI50,[5],1310 nM
same,GI50,[6],11600 nM
same,GI50,[7],6000 nM
same,GI50,[8],3690 nM
same,GI50,[9],6800 nM
same,GI50,[10],1820 nM
same,GI50,[11],2450 nM
same,GI50,[12],3260 nM
same,GI50,[13],4620 nM
same,GI50,[14],3400 nM
same,GI50,[15],4410 nM
same,GI50,[16],4050 nM
same,GI50,[17],11700 nM
same,GI50,[18],10500 nM
same,GI50,[19],2580 nM
same,GI50,[20],3250 nM
same,GI50,[21],2120 nM
same,GI50,[22],2180 nM
same,GI50,[23],8230 nM
same,GI50,[24],3430 nM
same,GI50,[25],2180 nM
same,GI50,[26],10300 nM
same,GI50,[27],5290 nM
same,GI50,[28],8900 nM
same,GI50,[29],10900 nM
same,GI50,[30],14100 nM
same,GI50,[31],10200 nM
same,GI50,[32],12800 nM
same,GI50,[33],6560 nM
same,GI50,[34],6790 nM
same,GI50,[35],7010 nM
same,GI50,[36],10700 nM
same,GI50,[37],4180 nM
same,GI50,[38],11300 nM
same,GI50,[39],3170 nM
same,GI50,[40],10900 nM
same,GI50,[41],10700 nM
same,GI50,[42],2040 nM
same,IC50,[43],91500 nM
same,IC50,[44],82200 nM
same,Activity,[45],Dose-dependent effect
same,inhibition,[46],19 to 36%
same,growth percent at 10 µM,[47],-79.2%
COc1cc(OC)cc(-c2ccc(-c3ccc(C(=N)N)cc3)s2)c1,GI50,[1],418 nM
same,GI50,[2],1460 nM
same,GI50,[3],231 nM
same,GI50,[4],1900 nM
same,GI50,[5],1750 nM
same,GI50,[6],1920 nM
same,GI50,[7],1690 nM
same,GI50,[8],1840 nM
same,GI50,[9],1960 nM
same,GI50,[10],1330 nM
same,GI50,[11],1820 nM
same,GI50,[12],1760 nM
same,GI50,[13],1220 nM
same,GI50,[14],1090 nM
same,GI50,[15],1840 nM
same,GI50,[16],1950 nM
same,GI50,[17],1970 nM
same,GI50,[18],1580 nM
same,GI50,[19],924 nM
same,GI50,[20],1840 nM
same,GI50,[21],1730 nM
same,GI50,[22],1700 nM
same,GI50,[23],1790 nM
same,GI50,[24],1810 nM
same,GI50,[25],2760 nM
same,GI50,[26],1870 nM
same,GI50,[27],2110 nM
same,GI50,[28],1950 nM
same,GI50,[29],1900 nM
same,GI50,[30],1970 nM
same,GI50,[31],2080 nM
same,GI50,[32],1730 nM
same,GI50,[33],1770 nM
same,GI50,[34],1810 nM
same,GI50,[35],1810 nM
same,GI50,[36],1970 nM
same,GI50,[37],1800 nM
same,GI50,[38],1770 nM
same,GI50,[39],1220 nM
same,GI50,[40],1990 nM
same,GI50,[41],1800 nM
same,GI50,[42],1680 nM
same,IC50,[43],73900 nM
same,IC50,[44],87200 nM
same,Activity,[45],Dose-dependent effect
same,inhibition,[46],19 to 36%
same,growth percent at 10 µM,[47],-74.1%
COc1ccc(-c2ccc(-c3ccc(C(=N)N)c(F)c3)s2)cc1,GI50,[1],2660 nM
same,GI50,[2],2510 nM
same,GI50,[3],3170 nM
same,GI50,[4],10400 nM
same,GI50,[5],1380 nM
same,GI50,[6],11000 nM
same,GI50,[7],3580 nM
same,GI50,[8],2430 nM
same,GI50,[9],3730 nM
same,GI50,[10],1780 nM
same,GI50,[11],1850 nM
same,GI50,[12],3040 nM
same,GI50,[13],2580 nM
same,GI50,[14],2790 nM
same,GI50,[15],3160 nM
same,GI50,[16],1920 nM
same,GI50,[17],9440 nM
same,GI50,[18],10700 nM
same,GI50,[19],2230 nM
same,GI50,[20],2150 nM
same,GI50,[21],1900 nM
same,GI50,[22],1830 nM
same,GI50,[23],2310 nM
same,GI50,[24],2670 nM
same,GI50,[25],1840 nM
same,GI50,[26],1820 nM
same,GI50,[27],4380 nM
same,GI50,[28],9770 nM
same,GI50,[29],4980 nM
same,GI50,[30],10100 nM
same,GI50,[31],9210 nM
same,GI50,[32],6580 nM
same,GI50,[33],4240 nM
same,GI50,[34],3940 nM
same,GI50,[35],4680 nM
same,GI50,[36],4330 nM
same,GI50,[37],4050 nM
same,GI50,[38],6250 nM
same,GI50,[39],2080 nM
same,GI50,[40],4820 nM
same,GI50,[41],5900 nM
same,GI50,[42],1390 nM
same,IC50,[43],104000 nM
same,IC50,[44],112000 nM
same,Activity,[45],Dose-dependent effect
same,inhibition,[46],66%
same,growth percent at 10 µM,[47],-80.5%
